Assay results published in US11866458B2, “Panaxadiol glycoside derivative and preparation method and application thereof” (SUZHOU JI ER BIOLOGICAL MEDICINE CO., LTD., priority 2018, dated 2024).
Marks after values point to notes of the source that are not given here.

What was measured:
[1] = after inhalation; cited from earlier work
[2] = tested on: mouse asthma model induced by OVA; assay: Asthma induced by ovalbumin in Balb/c mice: IgE level in serum by ELISA; type: in vivo; conditions: oral
[3] = tested on: inflammatory cells in bronchoalveolar lavage fluid of mice; assay: Determination of inflammatory cells in bronchoalveolar lavage fluid of mice (OVA asthma model); type: in vivo, BALB/C mice; parameters: unit not given here
Experimental: 144 6-week-old BALB/C mice (18-20 g) were divided into 24 groups: control group, placebo group, dexamethasone group (3 mg/kg) and the drug groups. There were 6 in each group. The control group was given normal saline without any treatment. The other groups were sensitized by intraperitoneal injection of OVA 20 μg and aluminum hydroxide 200 μL PBC (2 mg, prepared into emulsion). […] On day 21, 22 and 23, the therapeutic agent (i.e. 3 mg/kg dexamethasone in the positive control group and oral administration in the drug group) was given orally. From day 17 to 23, PBS was given to the control group and placebo group respectively, PBS (without OVA) was given to the control group. On day 0 and day 14, the normal saline was nebulized for 30 minutes to remove the aluminum hydroxide on day 21, 22 and 23 See in Table 2.

[4] = tested on: COPD rats induced by smoke exposure; assay: COPD induced by smoke exposure in rats: lung function FEV0.2/FVC; type: in vivo, Wistar rats; conditions: for FEV2/FVC % (FEV0.2/FVC %, forced expiratory index within 200 ms): 180 days; for effect in COPD rats compared with inhaled budesonide: high dose group, oral
[5] = tested on: ICR mice; assay: Blood routine test after 6 days of intragastric administration; conditions: for WBC: 1 hour after last dose
Experimental: Mice were intragastric administration for 6 consecutive days, and sufficient blood samples were taken for blood routine test 1 hour after the last dose.

[6] = tested on: ICR mice; assay: Blood glucose of caudal vein after 6 days of intragastric administration; conditions: for Blood glucose: fasted, caudal vein
Experimental: The mice were intragastric administration for 6 consecutive days, fasting was started at about 8:00 in the morning on the sixth day, and blood glucose in caudal vein was measured at about 4:00 in the next day.

[7] = Table 1-1 (1st time), 20 mg/kg, 24 hours after last OVA stimulation
[8] = 3 mg/kg, oral (positive control)
[9] = 1.8 mg/kg, intragastric, 6 days
[10] = 225 mg/kg, intragastric, 6 days

Compound | Concentration of IgE in serum [2, 7] [ng/mL] | Concentration of IgE in serum ([2]; Table 1-2 (2nd time), 15 mg/kg) [ng/mL] | Concentration of IgE in serum ([2]; Table 1-2 (2nd time), 30 mg/kg) [ng/mL] | Concentration of IgE in serum ([2]; Table 1-2 (2nd time), 60 mg/kg) [ng/mL] | Acidic cells in bronchoalveolar lavage fluid ([3]; 2 mg/kg, oral) | Neutral cells in bronchoalveolar lavage fluid ([3]; 2 mg/kg, oral) | Total inflammatory cells in bronchoalveolar lavage fluid ([3]; 2 mg/kg, oral) | lymphocyte in bronchoalveolar lavage fluid ([3]; 2 mg/kg, oral) | Acidic cells in bronchoalveolar lavage fluid ([3]; 20 mg/kg, oral) | Neutral cells in bronchoalveolar lavage fluid ([3]; 20 mg/kg, oral) | Total inflammatory cells in bronchoalveolar lavage fluid ([3]; 20 mg/kg, oral) | lymphocyte in bronchoalveolar lavage fluid ([3]; 20 mg/kg, oral) | Acidic cells in bronchoalveolar lavage fluid ([3]; 200 mg/kg, oral) | Neutral cells in bronchoalveolar lavage fluid ([3]; 200 mg/kg, oral) | Total inflammatory cells in bronchoalveolar lavage fluid ([3]; 200 mg/kg, oral) | lymphocyte in bronchoalveolar lavage fluid ([3]; 200 mg/kg, oral) | FEV2/FVC % (FEV0.2/FVC %, forced expiratory index within 200 ms) ([4]; 20 mg/kg oral) [%] | FEV2/FVC % (FEV0.2/FVC %, forced expiratory index within 200 ms) ([4]; 40 mg/kg oral) [%] | FEV2/FVC % (FEV0.2/FVC %, forced expiratory index within 200 ms) ([4]; 80 mg/kg oral) [%] | effect in COPD rats compared with inhaled budesonide [4] | further results
CC(C)C(=O)OCC(=O)[C@@]12O[C@H](C3CCCCC3)O[C@@H]1C[C@H]1[C@@H]3CCC4=CC(=O)C=C[C@]4(C)[C@H]3[C@@H](O)C[C@@]12C [ciclesonide] |  |  |  |  |  |  |  |  |  |  |  |  |  |  |  |  |  |  |  |  | bioavailability in vivo [1]: less than 1%
CC(C)=CCC[C@](C)(O[C@H]1OC(CO)[C@@H](O)[C@H](O)C1O)C1CC[C@]2(C)C1C(=O)CC1[C@@]3(C)CC[C@H](O)C(C)(C)C3CC[C@]12C (stereo partly drawn) [ID, 3β-hydroxyl-20(S)—O-α-D-mannopyranosyl dammarane-24-ene-12-one] | 1336.96 ± 211.85 | 1571.67 ± 134.04 | 1427.83 ± 164.28 | 1264.95 ± 127.60 | 34.15 ± 18.88 | 13.18 ± 7.76 | 46.39 ± 22.74 | 14.38 ± 8.71 | 15.17 ± 8.34 | 6.26 ± 4.73 | 29.46 ± 13.56 | 8.92 ± 6.89 | 6.79 ± 3.87 | 4.39 ± 3.13 | 13.81 ± 6.76 | 4.16 ± 317 | 66.28 ± 13.54 | 75.23 ± 10.71 | 86.34 ± 8.60 | superior to budesonide | content of IgE in mice serum (conclusion in words) ([2]; model of mouse asthma induced by OVA, samples): significantly reduce; therapeutic effect on bronchial asthma induced by OVA ([2]; mouse): obvious therapeutic effect
CC(C)=CCC[C@](C)(O[C@@H]1OC(CO)[C@H](O)[C@H](O)C1O)C1CC[C@]2(C)C1C(=O)CC1[C@@]3(C)CC[C@H](O)C(C)(C)C3CC[C@]12C (stereo partly drawn) [IC, 3p-hydroxyl-20(S)—O-β-D-galactopyranosyl dammarane-24-ene-12-one] | 975.82 ± 260.32 | 1908.70 ± 221.74 | 1738.93 ± 124.22 | 1575.92 ± 148.33 | 31.51 ± 16.14 | 13.29 ± 7.12 | 50.77 ± 32.49 | 9.30 ± 6.85 | 18.44 ± 7.78 | 8.16 ± 5.03 | 32.95 ± 21.07 | 6.49 ± 5.28 | 8.72 ± 3.31 | 5.17 ± 3.19 | 18.25 ± 9.48 | 3.77 ± 2.81 | 65.45 ± 14.17 | 76.64 ± 7.98 | 83.15 ± 8.42 | superior to budesonide | 
CC(=O)OCC(=O)[C@@]1(O)[C@H](C)C[C@H]2[C@@H]3CCC4=CC(=O)C=C[C@]4(C)[C@@]3(F)[C@@H](O)C[C@@]21C [Dexamethasone acetate tablets, Dexamethasone acetate] |  |  |  |  |  |  |  |  |  |  |  |  |  |  |  |  |  |  |  |  | Concentration of IgE in serum ([2]; Table 1-1 (1st time), 0.6 mg/kg, 24 hours after last OVA stimulation): 1131.05 ± 211.85 ng/mL; Concentration of IgE in serum ([2]; Table 1-2 (2nd time), 0.6 mg/kg): 1367.07 ± 103.80 ng/mL; Acidic cells in bronchoalveolar lavage fluid [3, 8]: 7.49 ± 5.25; Neutral cells in bronchoalveolar lavage fluid [3, 8]: 9.64 ± 5.16; Total inflammatory cells in bronchoalveolar lavage fluid [3, 8]: 36.12 ± 14.89; lymphocyte in bronchoalveolar lavage fluid [3, 8]: 8.46 ± 5.73; leukocyte count compared to blank control group ([5]; 1.8 mg/kg): decreased significantly; lymphocyte percentage compared to blank control group ([5]; 1.8 mg/kg): decreased significantly; monocyte percentage compared to blank control group ([5]; 1.8 mg/kg): increased significantly; neutrophil percentage compared to blank control group ([5]; 1.8 mg/kg): increased significantly; Ba % [5, 9]: 0.04 ± 0.03%; Eo % [5, 9]: 0.09 ± 0.02%; Ly % [5, 9]: 42.59 ± 28.17 %; Mo % [5, 9]: 12.08 ± 6.28 %; Ne % [5, 9]: 45.17 ± 16.22 %; WBC [5, 9]: 1.26 ± 0.49** 10^2/mm^3; blood glucose in mice compared with blank control group ([6]; 1.8 mg/kg): increase blood glucose; Blood glucose [6, 9]: 5.78 ± 0.36 mmol/L
CC(C)=CCC[C@](C)(O[C@@H]1OC(CO)[C@@H](O)[C@H](O)C1O)C1CC[C@]2(C)C1C(=O)CC1[C@@]3(C)CC[C@H](O)C(C)(C)C3CC[C@]12C (stereo partly drawn) [IB, 3β-hydroxyl-20(S)—O-β-D-glucopyranosyl dammarane-24-ene-12-one] | 1337.11 ± 216.28 | 2023.33 ± 203.47 | 1909.19 ± 121.73 | 1769.13 ± 164.34 | 31.19 ± 8.46 | 12.11 ± 7.22 | 46.76 ± 25.18 | 10.07 ± 6.12 | 9.35 ± 4.16 |  | 25.18 ± 13.12 | 7.53 ± 4.95 | 5.14 ± 3.08 | 3.49 ± 2.37 | 12.53 ± 6.23 | 3.75 ± 2.18 | 65.14 ± 12.78 | 73.59 ± 10.81 | 82.16 ± 9.01 | superior to budesonide | 
CC(C)=CCC[C@](C)(O[C@@H]1O[C@H](CO)[C@@H](O)[C@H](O)[C@H]1O)[C@H]1CC[C@]2(C)[C@@H]1[C@H](O)C[C@@H]1[C@@]3(C)CC[C@H](O)C(C)(C)[C@@H]3CC[C@]12C [CK, ginsenoside compound K, reference compound] | 1701.85 ± 284.66 | 1921.25 ± 160.12 | 1676.69 ± 159.13 | 1501.85 ± 110.68 | 32.47 ± 20.33 | 15.24 ± 7.94 |  | 16.81 ± 9.88 | 16.39 ± 9.67 | 8.78 ± 5.33 | 24.87 ± 20.58 | 10.15 ± 7.34 | 13.12 ± 7.38 | 4.32 ± 3.16 | 22.38 ± 12.69 | 7.42 ± 4.53 | 61.29 ± 11.76 | 70.89 ± 10.56 | 80.24 ± 13.73 | superior to budesonide | Ba % [5, 10]: 0.01 ± 0.02%; Eo % [5, 10]: 0.75 ± 0.71%; Ly % [5, 10]: 62.54 ± 30.29%; Mo % [5, 10]: 6.01 ± 8.91%; Ne % [5, 10]: 31.39 ± 2.72%; hematological related changes [5, 10]: no hematological related changes; WBC [5, 10]: 4.96 ± 2.14 10^2/mm^3; blood glucose related changes [6, 10]: no blood glucose related changes; Blood glucose [6, 10]: 3.18 ± 0.28 mmol/L
